Results on one compound are retold here after US20240103005A1, “N-ACRYLOYLINDOLES AND METHODS OF USE” (The University of Hong Kong, priority 2022, published 2024).

Data set [1] relates to HepG2 cells. In words: Gel-based ABPP, Cys labeling in live HepG2 cells. Format: cell-based. Conditions: 10 μM, three incubation time intervals. As to the method:
In-Gel Fluorescence for Visualizing Cys Labeling by NAIAs and IAA in Live Cells
231MFP or HepG2 cells were grown in 10-cm plates in complete medium. At ca. 80% confluency, the cells were treated with DMSO solvent control, NAIA-4, NAIA-5, or IAA at indicated concentrations in complete medium for indicated time interval. The cells were then washed by DPBS and lysed by probe sonication in DPBS. Cell debris were removed by centrifugation at 1,000 g for 5 min. Protein concentration of the lysates was determined by BCA assay, and the lysates were diluted to 2 mg/mL by DPBS. 50 μL of the lysates were labeled with azide-fluor 545 by CuAAC according to the procedures described above. The samples were then added with 4× reducing Laemmli SDS sample loading buffer, boiled at 90° C. for 5 min, and separated by molecular weight on precast 4-20% TGX gels and scanned by ChemiDoc MP for measuring in-gel fluorescence. After that, the gel was stained with SimplyBlue™ SafeStain as described above, washed and scanned by ChemiDoc MP for imaging the blue staining.
In view of the success in labeling cysteines in cell lysates, we then proceeded to apply NAIA for capturing reactive cysteines in live cells. […] After protein assay and normalization, the protein samples were subjected to click reaction with azide-fluor 545, followed by SDS-PAGE and in-gel fluorescence measurement. […]

The nature of data set [2]: Stability in aqueous buffer solution over time (LC-MS). It is filed as physicochemical. The method, then:
Stability of NAIA-5 in Aqueous Buffer Solution Over Time
NAIA-5 (10 μM) was dissolved in PBS/MeOH solution mixture (4:1, v/v; 500 μL) and stay at room temperature. At predetermined time intervals, an aliquot of the reaction mixture (10 μL) was sent for LC-MS analysis on Waters Autopurification System using a SunFire C18 HPLC column (50×4.6 mm with 5 μm diameter particles, Waters). Separation was achieved by gradient elution from 5% to 100% MeCN in water (constant 0.1 vol % formic acid) over 4 min, isocratic elution with 100% MeCN (with 0.1 vol % formic acid) from 4 to 8 min and returning to 5% MeCN in water (with 0.1 vol % formic acid) and equilibrated for 2 min. Selected ion chromatograms, with m/z=325 corresponding to [NAIA-5+H]^+, were extracted and analyzed by integrating the area under curve.
As fast-reacting probes are often susceptible to hydrolysis, we sought to investigate the aqueous stability of NAIA-C5 amide. […] Taking the excellent reaction kinetics and a mere 14% degradation in 30 min into account, NAIA-C5 amide was considered to be a useful tool in cysteine profiling (FIG. 17C and FIG. 17F).

Turning to `C#CCCCCNC(=O)COc1ccc2c(ccn2C(=O)C=C)c1` [NAIA-5], the “cysteine labeling in live cells (in-gel fluorescence) compared with IAA” value in data set [1] is “better cysteine labeling than IAA at 10 μM for all the three incubation time intervals”. The “change of compound level in aqueous buffer solution over time (in words)” value in data set [2] (10 μM, PBS/MeOH 4:1, room temperature) is listed as “No significant changes in NAIA-5 level in the aqueous buffer solution over time”. For the same compound, the “time stable in PBS solution” value in data set [2] (pH 7.4, absence of Cys) is no less than 3 h.
